Laboratory results taken from ChEMBL document CHEMBL1144156 (Bioorg Med Chem Lett, 2008).
pEC50, pIC50: −log10 of the molar value.

Legend:
[1] = molecular target: T1, Progesterone receptor (Homo sapiens, UniProt P06401); assay: Activity at progesterone receptor assessed as alkaline phosphatase activity in human T47D cells; format: cell-based
T1 sequence (P06401 whole entry): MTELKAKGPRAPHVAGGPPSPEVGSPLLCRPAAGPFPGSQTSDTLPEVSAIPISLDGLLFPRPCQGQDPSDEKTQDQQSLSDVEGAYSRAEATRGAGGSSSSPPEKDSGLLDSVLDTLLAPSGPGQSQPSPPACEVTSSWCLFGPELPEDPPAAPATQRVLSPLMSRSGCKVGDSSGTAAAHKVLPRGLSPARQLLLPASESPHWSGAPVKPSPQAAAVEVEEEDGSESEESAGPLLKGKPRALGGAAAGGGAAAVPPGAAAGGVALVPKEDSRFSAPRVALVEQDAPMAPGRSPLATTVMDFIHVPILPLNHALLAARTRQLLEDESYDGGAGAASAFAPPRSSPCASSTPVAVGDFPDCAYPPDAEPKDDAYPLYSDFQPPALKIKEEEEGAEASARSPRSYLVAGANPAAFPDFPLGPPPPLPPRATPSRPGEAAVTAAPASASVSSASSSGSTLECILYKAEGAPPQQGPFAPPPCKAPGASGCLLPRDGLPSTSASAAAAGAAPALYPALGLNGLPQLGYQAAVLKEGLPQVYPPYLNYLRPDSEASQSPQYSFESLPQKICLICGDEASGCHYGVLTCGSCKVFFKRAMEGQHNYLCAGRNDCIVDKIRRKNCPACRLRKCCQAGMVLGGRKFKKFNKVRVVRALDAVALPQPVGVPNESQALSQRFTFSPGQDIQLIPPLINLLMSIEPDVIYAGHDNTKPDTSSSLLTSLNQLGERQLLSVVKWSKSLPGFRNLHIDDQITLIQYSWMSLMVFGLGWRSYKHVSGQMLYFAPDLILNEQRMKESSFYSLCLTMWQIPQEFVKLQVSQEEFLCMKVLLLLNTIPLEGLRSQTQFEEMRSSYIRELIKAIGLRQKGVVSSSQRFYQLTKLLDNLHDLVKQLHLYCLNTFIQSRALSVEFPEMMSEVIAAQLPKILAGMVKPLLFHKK

[2] = molecular target: T2, Androgen receptor (Homo sapiens, UniProt P10275); assay: Antagonist activity at androgen receptor by Gal4-DNA binding domain-hormone receptor LBD one-hybrid assay
T2 sequence (P10275 whole entry): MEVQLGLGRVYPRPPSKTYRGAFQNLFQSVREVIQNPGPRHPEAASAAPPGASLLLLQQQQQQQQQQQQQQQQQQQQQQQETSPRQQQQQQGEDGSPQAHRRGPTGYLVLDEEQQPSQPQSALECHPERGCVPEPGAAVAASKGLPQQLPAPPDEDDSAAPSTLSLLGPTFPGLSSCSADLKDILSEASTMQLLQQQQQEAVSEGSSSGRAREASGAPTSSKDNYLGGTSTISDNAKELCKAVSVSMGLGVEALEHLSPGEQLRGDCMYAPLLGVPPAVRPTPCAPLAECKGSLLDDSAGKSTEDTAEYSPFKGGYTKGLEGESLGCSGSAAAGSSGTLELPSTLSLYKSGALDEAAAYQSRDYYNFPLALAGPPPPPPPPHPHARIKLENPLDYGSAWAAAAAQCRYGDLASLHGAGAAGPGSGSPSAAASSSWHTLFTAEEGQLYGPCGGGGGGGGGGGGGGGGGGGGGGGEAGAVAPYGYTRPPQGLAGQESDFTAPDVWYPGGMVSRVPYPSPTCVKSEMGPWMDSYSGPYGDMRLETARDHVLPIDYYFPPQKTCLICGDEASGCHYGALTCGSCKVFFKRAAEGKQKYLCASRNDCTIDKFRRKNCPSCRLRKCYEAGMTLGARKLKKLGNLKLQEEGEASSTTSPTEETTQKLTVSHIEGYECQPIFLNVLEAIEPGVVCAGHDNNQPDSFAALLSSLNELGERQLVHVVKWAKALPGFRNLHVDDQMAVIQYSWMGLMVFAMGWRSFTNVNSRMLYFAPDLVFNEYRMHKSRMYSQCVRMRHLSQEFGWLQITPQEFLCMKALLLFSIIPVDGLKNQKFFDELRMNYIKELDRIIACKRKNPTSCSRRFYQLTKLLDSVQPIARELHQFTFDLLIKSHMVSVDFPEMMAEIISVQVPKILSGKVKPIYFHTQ

[3] = molecular target: T3, Estrogen receptor (Homo sapiens, UniProt P03372); assay: Antagonist activity at estrogen receptor by Gal4-DNA binding domain-hormone receptor LBD one-hybrid assay
T3 sequence (P03372 whole entry): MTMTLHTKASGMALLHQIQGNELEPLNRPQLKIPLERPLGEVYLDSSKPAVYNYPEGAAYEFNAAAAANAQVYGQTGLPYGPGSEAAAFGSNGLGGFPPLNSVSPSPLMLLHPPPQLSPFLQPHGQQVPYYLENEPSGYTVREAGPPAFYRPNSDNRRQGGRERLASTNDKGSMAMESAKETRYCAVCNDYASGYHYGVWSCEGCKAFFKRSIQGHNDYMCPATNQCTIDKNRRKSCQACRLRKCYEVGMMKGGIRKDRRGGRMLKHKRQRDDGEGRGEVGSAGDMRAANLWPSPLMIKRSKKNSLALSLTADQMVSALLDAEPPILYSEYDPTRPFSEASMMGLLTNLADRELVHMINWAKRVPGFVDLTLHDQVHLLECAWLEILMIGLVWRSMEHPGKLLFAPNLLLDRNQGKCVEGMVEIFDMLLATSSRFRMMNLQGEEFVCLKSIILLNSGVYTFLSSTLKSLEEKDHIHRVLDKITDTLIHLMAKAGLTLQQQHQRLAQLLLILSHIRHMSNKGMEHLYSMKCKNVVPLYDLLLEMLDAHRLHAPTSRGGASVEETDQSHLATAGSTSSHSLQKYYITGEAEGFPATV

[4] = molecular target: T4, Mineralocorticoid receptor (Homo sapiens, UniProt P08235); assay: Antagonist activity at mineralocorticoid receptor by Gal4-DNA binding domain-hormone receptor LBD one-hybrid assay
T4 sequence (P08235 whole entry): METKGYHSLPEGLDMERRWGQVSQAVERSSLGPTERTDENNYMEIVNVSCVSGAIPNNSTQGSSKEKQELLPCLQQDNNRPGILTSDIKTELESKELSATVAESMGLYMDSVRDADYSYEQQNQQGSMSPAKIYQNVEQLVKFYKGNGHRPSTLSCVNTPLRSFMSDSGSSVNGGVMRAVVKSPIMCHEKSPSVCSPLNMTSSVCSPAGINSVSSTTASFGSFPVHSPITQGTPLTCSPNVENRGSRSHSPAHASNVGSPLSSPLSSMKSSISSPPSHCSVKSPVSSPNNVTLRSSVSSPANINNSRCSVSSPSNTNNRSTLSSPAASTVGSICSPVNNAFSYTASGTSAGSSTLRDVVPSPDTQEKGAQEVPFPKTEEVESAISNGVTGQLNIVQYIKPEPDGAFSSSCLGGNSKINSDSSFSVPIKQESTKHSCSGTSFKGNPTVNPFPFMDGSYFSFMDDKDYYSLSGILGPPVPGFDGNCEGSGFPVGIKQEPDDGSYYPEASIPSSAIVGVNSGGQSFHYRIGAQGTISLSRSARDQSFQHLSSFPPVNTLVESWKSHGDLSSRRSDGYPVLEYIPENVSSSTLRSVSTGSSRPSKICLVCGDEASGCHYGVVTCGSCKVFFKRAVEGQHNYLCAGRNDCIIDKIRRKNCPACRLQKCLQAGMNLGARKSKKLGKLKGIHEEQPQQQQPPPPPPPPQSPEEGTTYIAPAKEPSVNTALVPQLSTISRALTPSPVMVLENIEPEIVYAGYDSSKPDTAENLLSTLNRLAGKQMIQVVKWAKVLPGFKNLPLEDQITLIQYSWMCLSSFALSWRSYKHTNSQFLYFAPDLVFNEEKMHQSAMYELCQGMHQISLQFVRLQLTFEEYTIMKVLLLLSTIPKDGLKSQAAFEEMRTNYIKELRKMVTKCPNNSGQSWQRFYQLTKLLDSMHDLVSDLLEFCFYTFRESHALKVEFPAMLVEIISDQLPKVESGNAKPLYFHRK

[5] = molecular target: T1, Progesterone receptor; assay: Antagonist activity at progesterone receptor assessed as progesterone-induced alkaline phosphatase activity in human T47D cells; format: functional, cell-based
[6] = molecular target: T1, Progesterone receptor; assay: Displacement of [3H]progesterone from progesterone receptor in human T47D cells; format: cell-based
[7] = molecular target: T5, Glucocorticoid receptor (Homo sapiens, UniProt P04150); assay: Antagonist activity at glucocorticoid receptor by Gal4-DNA binding domain-hormone receptor LBD one-hybrid assay
T5 sequence (P04150 whole entry): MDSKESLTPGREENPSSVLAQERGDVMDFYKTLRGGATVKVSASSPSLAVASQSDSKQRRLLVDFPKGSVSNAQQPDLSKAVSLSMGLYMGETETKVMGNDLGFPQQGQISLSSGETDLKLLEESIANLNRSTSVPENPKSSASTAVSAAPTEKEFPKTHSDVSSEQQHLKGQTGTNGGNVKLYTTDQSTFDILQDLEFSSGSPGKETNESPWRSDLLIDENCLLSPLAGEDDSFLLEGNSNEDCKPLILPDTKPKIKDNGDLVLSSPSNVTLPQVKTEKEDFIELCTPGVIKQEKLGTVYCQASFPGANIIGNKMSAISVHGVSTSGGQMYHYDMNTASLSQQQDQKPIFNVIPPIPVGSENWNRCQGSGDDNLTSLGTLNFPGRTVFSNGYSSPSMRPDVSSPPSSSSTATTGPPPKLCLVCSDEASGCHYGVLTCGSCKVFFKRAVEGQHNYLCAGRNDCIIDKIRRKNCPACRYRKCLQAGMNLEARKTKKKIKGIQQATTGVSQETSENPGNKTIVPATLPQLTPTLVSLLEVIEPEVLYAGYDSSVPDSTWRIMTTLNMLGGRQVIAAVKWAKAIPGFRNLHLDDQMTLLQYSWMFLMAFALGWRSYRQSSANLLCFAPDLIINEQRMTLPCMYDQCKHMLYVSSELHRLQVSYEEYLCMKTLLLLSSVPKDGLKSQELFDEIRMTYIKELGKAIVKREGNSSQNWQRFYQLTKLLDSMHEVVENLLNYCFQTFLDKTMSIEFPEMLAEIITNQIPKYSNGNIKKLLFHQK

| Compound | pEC50 [1] | pIC50 [5] | pIC50 [6] | also measured |
| --- | --- | --- | --- | --- |
| CC1(c2ccsc2)OCC(=O)Nc2ccc(-c3ccc(C#N)[nH]3)cc21 (stereo not given) | 8.96 | – | – | – |
| Cn1c(C#N)ccc1-c1ccc2c(c1)C(c1ccco1)(c1ccco1)OCC(=O)N2 | – | 8.18 | 7.55 | pIC50 [2]: 6.13; pIC50 [3]: < 5.00; pIC50 [4]: 5.55; pIC50 [7]: < 5.52 |
| C[C@]1(c2ccsc2)OCC(=O)Nc2ccc(-c3ccc(C#N)[nH]3)cc21 | 6.96 | – | – | – |
| CCC1(c2cccs2)OCC(=O)N(C)c2ccc(-c3ccc(C#N)n3C)cc21 (stereo not given) | – | 6.92 | – | – |
| Cn1c(C#N)ccc1-c1ccc2c(c1)C(C)(c1ccsc1)OCC(=O)N2 (stereo not given) | 9.10 | – | 8.47 | pIC50 [2]: 6.49; pIC50 [3]: < 5.00; pIC50 [4]: 6.36; pIC50 [7]: 6.90 |
| N#Cc1ccc(-c2ccc3c(c2)C2(CCCCC2)OCC(=O)N3)[nH]1 | 7.52 | – | – | – |
| CC1(C)OCC(=O)Nc2ccc(-c3ccc(C#N)[nH]3)cc21 | 8.48 | – | 7.97 | – |
| CC1OCC(=O)Nc2ccc(-c3ccc(C#N)[nH]3)cc21 (stereo not given) | 6.61 | – | – | – |
| Cn1c(C#N)ccc1-c1ccc2c(c1)C(c1cccs1)(c1cccs1)OCC(=O)N2 | – | – | 7.22 | pIC50 [2]: 6.11; pIC50 [3]: < 5.00; pIC50 [4]: 5.64; pIC50 [7]: < 5.52 |
| Cn1c(C#N)ccc1-c1ccc2c(c1)C(C)(c1ccco1)OCC(=O)N2 (stereo not given) | 9.40 | – | – | pIC50 [2]: 6.67; pIC50 [3]: < 5.00; pIC50 [4]: 6.81; pIC50 [7]: 6.92 |

Continued, in another order:

| pEC50 [1] | pIC50 [5] | pIC50 [6] | Compound | also measured |
| --- | --- | --- | --- | --- |
| 6.86 | – | – | CC1OCC(=O)Nc2ccc(-c3ccc(C#N)n3C)cc21 (stereo not given) | – |
| 7.43 | – | – | CN1C(=O)COC(C)(c2cccs2)c2cc(-c3ccc(C#N)n3C)ccc21 (stereo not given) | – |
| – | 7.25 | – | CCCC1(c2cccs2)OCC(=O)Nc2ccc(-c3ccc(C#N)n3C)cc21 (stereo not given) | – |
| – | 6.30 | – | CN1C(=O)COC(c2ccccc2)(c2ccccc2)c2cc(-c3ccc(C#N)n3C)ccc21 | – |
| 9.30 | – | – | C[C@@]1(c2ccsc2)OCC(=O)Nc2ccc(-c3ccc(C#N)[nH]3)cc21 | – |
| – | 7.84 | 7.44 | Cn1c(C#N)ccc1-c1ccc2c(c1)C(c1ccccc1)(c1ccccc1)OCC(=O)N2 | – |
| 9.10 | – | 8.62 | Cn1c(C#N)ccc1-c1ccc2c(c1)C(C)(c1cccs1)OCC(=O)N2 (stereo not given) | – |
| 9.15 | – | 8.42 | CC1(c2cccs2)OCC(=O)Nc2ccc(-c3ccc(C#N)[nH]3)cc21 (stereo not given) | – |
| – | – | 7.12 | CCC1(c2cccs2)OCC(=O)Nc2ccc(-c3ccc(C#N)n3C)cc21 (stereo not given) | – |
| – | 6.70 | – | Cn1c(C#N)ccc1-c1ccc2c(c1)C(c1ccc(Cl)s1)(c1ccc(Cl)s1)OCC(=O)N2 | – |
| 8.48 | – | – | Cn1c(C#N)ccc1-c1ccc2c(c1)C(C)(C)OCC(=O)N2 | – |
| – | 6.76 | – | Cn1c(C#N)ccc1-c1ccc2c(c1)C(c1cccc(Cl)c1)(c1cccc(Cl)c1)OCC(=O)N2 | – |
| – | 7.44 | – | CC(C)C1(c2cccs2)OCC(=O)Nc2ccc(-c3ccc(C#N)n3C)cc21 (stereo not given) | – |
